Tests used:
human neutrophils [1] = experiment: Effect of signaling pathway inhibitors on directional neutrophil migration in IL-8 gradients (microfluidic device); assay type: cell-based
Description: (§1) Microfluidic Migration Assay and Timelapse Microscopy: Neutrophils (1×10^3 cells) were placed uniformly across the migration channel and allowed to migrate under a linear gradient of human Interleukin-8 (72 a.a.; PeproTech, Rocky Hill, N.J.) in IMDM with 0.5% (w/v) FCS flowing at 0.1 mm/sec. […] Brightfield images were taken every 30 seconds using a C4742-95 Hamamatsu digital camera (Hamamatsu, Japan) controlled by IPLab 3.6.1 (Scanalytics, Fairfax, Va.). Cell movement was always observed at a set point along the migration channel. Gradients were also calibrated at this set point. Migration was quantified for all cells across the gradient.
Signaling Pathway Inhibitors: Cells were treated with pertussis toxin (100 ng/mL; 30 minutes at 37° C.), wortmannin (1 μM, 10 μM; 20 minutes at 37° C., 8-Br-cAMP (1 mM; 15 minutes at room temperature), 8-Br-cGMP (1 mM; 15 minutes at room temperature) (Sigma-Aldrich), or the CXCR2 non-peptide antagonist, SB225002 (1 pM, 100 pM, 1 nM, or 1 μM for 15 minutes at 37° C.; Calbiochem, Calif.). Immediately after treatment cells were seeded in migration channel of the microfluidic device and allowed to migrate as described above.
Since receptor occupancy is known to play a role in directional decision making and gradient sensing in the context of chemotaxing eukaryotic cells, it was postulated that chemokine receptor occupancy by a chemokine might also play a critical role in the decision of a cell to move up or down a chemokine gradient. Thus, a SB25002, the specific non-peptide antagonist of the IL-8 receptor, CXCR2 was utilized to examine this postulate. Neutrophils were pretreated with SB225002 at concentrations between 1 pM and 1 μM and then exposed to 0 to 1.2 μM gradients of IL-8 in microfabricated devices as described above. Videos of cell migration were analysed using MetaMorph and MathLab software to generate normalized angular frequencies determined for cells migrating in each of the three sectors of the gradient. The absence of inhibitor generates a normalized angular frequency of 1.0 whereas inhibition of fugetactic or chemotactic angular frequencies results in a normalized frequency of <1.0 and augmentation of either directional response results in a value greater than 1. This analysis allows to precisely quantitate the effect of a given concentration of inhibitor on the directional decision of the cell to move up or down a gradient. […] Furthermore, although IL-8 binds to both CXCR2 and CXCR1 on the cell surface, of the human neutrophil bi-directional signaling was evidently critically dependent on CXCR2.
It had been previously shown that the signaling pathway for chemotaxis is distinct from that for chemorepulsion or fugetaxis. […] The study of neutrophil migration in microfabricated devices allows to examine precisely the effects of these inhibitors on quantitative parameters of cell migration including the directional bias of cells in the context of precisely defined and stable chemokine gradients. Primary human neutrophils were pretreated with known inhibitors of the chemokine signal transduction pathway including pertussis toxin, wortmannin, genistein, 8-Br-cAMP and 8-Br-cGMP and then exposed to IL-8 gradients in which chemotaxis and fugetaxis were seen. The effect of the inhibitor on directional migration towards or away from the chemokine was quantitated by determining the directional motility index of cells migrating in the context of these gradients. Movement vector angles corresponding to movement up the gradient (30 to 150 degrees—see FIG. 13) were defined as chemotactic and measured movement vector angles corresponding to movement down the gradient (210 to 330 degrees—see figure) were defined as fugetactic. The directional choice of cells to move up or down a chemokine gradient were therefore compared in the presence and the absence of an inhibitor. […]

human neutrophils [2] = experiment: Microfluidic migration assay of neutrophils in linear gradients of IL-8; assay type: cell-based
Experimental: Neutrophil isolation: Human whole blood was obtained from healthy volunteers by venipuncture into tubes containing sodium heparin (Becton Dickinson, San Jose, Calif.). Whole blood was centrifuged for 4 minutes at 2400 rpm and plasma was removed. Resulting pellet was resuspended in Iscove's Modified Dulbecco's Medium (IMDM; Cellgro MediaTech, Herndon, Va.) with 0.5% (w/v) fetal calf serum FCS; Cellgro MediaTech). 25 mL of suspension was layered over 10 mL Lymphocyte Separation Medium (ICN, Irvine, Calif.) and centrifuged for 40 minutes at 1600 rpm at 22° C. Supernatant was aspirated, resulting pellet was resuspended in IMDM with 0.5% (w/v) FCS and 2% (w/v) dextran (Sigma-Aldrich, St. Louis, Mo.), and red blood cells (RBC) were allowed to sediment for 30 minutes at room temperature. Supernatant was transferred into clean tube and centrifuged for 5 minutes at 2000 rpm. Supernatant was aspirated, pellet was mixed with cold ddH2O for hypotonic lysis of remaining RBCs, and transferred to IMDM with 0.5% (w/v) FCS. Isolated neutrophils were washed and resuspended in IMDM with 0.5% (w/v) FCS, determined to be 95% pure, and 99% viable by Trypan Blue exclusion.
Fabrication and Preparation of Microfluidic Linear Gradient Generator: The microfluidic linear gradient generator was fabricated in poly(dimethylsiloxane) (PDMS; Sylgard 184, Dow Corning, N.Y.) using rapid prototyping and soft lithography as described previously. Briefly, a high resolution printer was used to generate a transparency mask from a computer-aided design image file. The mask was used in contact photolithography with SU-8 photoresist (Microlithography Chemical Co., Newton Mass.) to generate a positive relief of patterned photoresist on a silicon wafer. Replicas with embossed channels were fabricated by curing PDMS prepolymer against the patterned wafer. Inlet and outlet ports for media and cell suspension were bored out of the cured PDMS replica using a sharpened syringe needle. The PDMS replica and glass substrate were placed in an oxygen plasma generator (150 mTorr, 100 W) for 1 minute. Immediately following plasma treatment, the PDMS replica and glass were placed against each other and irreversibly bonded. Polyethylene tubing (Becton Dickenson) was inserted into inlet and outlet ports to make the fluidic connections. Tubing was connected to a PHD 2000 syringe pump (Harvard Apparatus, Holliston, Mass.) to complete the setup. Hemostats were used to control flow during cell loading.
as §1, with “[…];” for “cells) were placed uniformly across the migration channel and allowed to migrate under a linear gradient of human Interleukin-8 (72 a.a.;”
Construction of Digital Videos for Quantitative Analysis: Digital videos were mad from time-lapse video microscopy file stacks or S-VHS videotapes using a combination of IPLab 3.6.1, Photoshop 6.0 (Adobe Systems, San Jose, Calif.), and Apple QuickTime Pro 5.0 (Apple Computer, Cupertino, Calif.). Migration tracking was carried out using MetaMorph 4.5 (Universal Imaging, Downington, Pa.) object tracking application, which generated tables of Cartesian coordinate data for each tracked cell.
Mathematical Analysis of Cell Migration in Linear Gradient Generator: The angular correlation function, or cosine correlation function, was calculated for each experiment. For experiments with no gradient, the correlation function decayed exponentially with increasing time interval, while the function decayed much slower, potentially by a power law, for experiments with a gradient; in all cases correlation of angles over time was increased as absolute [IL-8] increased. […]

[3] = pretreated cells, IL-8 gradients in which chemotaxis and fugetaxis were seen

Compound: O=C(Nc1ccc([N+](=O)[O-])cc1O)Nc1ccccc1Br [SB225002]
- effect on neutrophil chemotaxis (normalized angular frequency) (human neutrophils [1]; 1 pM and 100 pM inhibitor, 0 to 1.2 μM gradient of IL-8): augmented
- effect on neutrophil fugetaxis (normalized angular frequency) (human neutrophils [1]; 1 pM inhibitor, 0 to 1.2 μM gradient of IL-8, p=0.0037): significant inhibition
- effect on neutrophil fugetaxis (normalized angular frequency) (human neutrophils [1]; 100 pM inhibitor, 0 to 1.2 μM gradient of IL-8, p=0.0210): significant inhibition
- effect on neutrophil directional migration (human neutrophils [1]; gradually increasing concentrations (up to 1 μM), 0 to 1.2 μM gradient of IL-8): inhibited both fugetaxis and chemotaxis

Compound: IL-8: human Interleukin-8 (72 a.a.; PeproTech), chemokine
- Persistence time of cell movement (human neutrophils [2]; IL-8 gradient in which chemotaxis is seen predominantly): 21.5 min
- Persistence time of cell movement (human neutrophils [2]; IL-8 gradient in which fugetaxis is seen predominantly): 10.9 min
- neutrophil migratory behaviour (human neutrophils [2]; chemokine at a uniform concentration across the migration channel): underwent chemokinesis
- mean chemotropism index (MCI) (human neutrophils [2]; gradient between 0 and 12 nM): +0.32
- mean chemotropism index (MCI) (human neutrophils [2]; gradient between 0 and 120 nM): +0.39
- mean chemotropism index (MCI) (human neutrophils [2]; gradient of 0 to 1.2 μM): −0.13
- neutrophil migratory behaviour (human neutrophils [2]; gradient of 0 to 1.2, cells commencing in the central third of the gradient): underwent chemokinesis
- neutrophil migratory behaviour (human neutrophils [2]; gradient of 0 to 1.2, cells in the lower third of the gradient): chemotaxed towards higher levels of the chemokine
- neutrophil migratory behaviour (human neutrophils [2]; gradient of 0 to 1.2, cells originating in the upper third of the gradient): underwent fugetaxis down the gradient
- neutrophil migratory behaviour (human neutrophils [2]; gradients between 0 and 12 nM and 0 and 120 nM): predominantly demonstrated chemotaxis
- mean sectional MCI (human neutrophils [2]; lower segment of the 0 to 10.2 μM gradient): +0.2
- mean sectional MCI (human neutrophils [2]; middle third of the 0 to 10.2 μM gradient): −0.14
- neutrophil migratory behaviour (human neutrophils [2]; steepest gradient, 0 to 2.4 μM): underwent chemokinesis regardless of their position within the gradient
- Persistence time of cell movement (human neutrophils [2]; uniform concentration of IL-8 (chemokinesis)): 4.5 min
- mean chemotropism index (MCI) (human neutrophils [2]; uniform concentration of chemokine at 120 nM): −0.02 +/−0.01
- mean sectional MCI (human neutrophils [2]; upper third of the 0 to 10.2 μM gradient): −0.22

Compound: pertussis toxin
- effect on neutrophil chemotaxis (angular frequency, movement up the gradient) (human neutrophils [1]; [3]): significantly inhibited
- effect on neutrophil fugetaxis (angular frequency, movement down the gradient) (human neutrophils [1]; [3]): significantly inhibited
